From patent publication US20090298897A1, “Treatment of Inflammatory Disorders With Triazole Compounds” (priority 2006, published 2009)
“And” between values parts separate entries of the source, which are not always exact repeats. Identical values can stand only once.

Experiments:
[1] = test system: SLS-induced irritant dermatitis; experiment: Irritant dermatitis induced by sodium lauryl sulfate (SLS); assay type: in vivo, human; settings: 0.35% gel, 4 days pre-treatment and 5 days during 2% SLS; healthy volunteers
Experimental: Rambazole (0.35%) gel was applied as a pre-treatment during four days. Inflammation was induced by applying 2% SLS during 2 hours in rings on the arm of twelve healthy volunteers once a day for five days. Rambazole (0.35%) gel was applied during the five days of induced inflammation. Skin reactions of non-treated and rambazole gel-treated skin sites were assessed 24 hours after each application with SLS and 72 hours after the last SLS application (visual scoring of redness, chromametry, TEWL).

[2] = test system: moderate to severe facial acne vulgaris; experiment: Treatment of acne vulgaris with oral rambazole (lesion counts); assay type: in vivo, human; settings: for Table 3 (untitled, lesion count), Max. / Table 3 (untitled, lesion count), Mean / Table 3 (untitled, lesion count), Median / Table 3 (untitled, lesion count), Min. / Table 6 (untitled, summary of Table 5 lesion count), Max. / Table 6 (untitled, summary of Table 5 lesion count), Mean / Table 6 (untitled, summary of Table 5 lesion count), Median / Table 6 (untitled, summary of Table 5 lesion count), Min. / Table 4 (untitled, change of Table 3 count versus Visit 2), Max. / Table 4 (untitled, change of Table 3 count versus Visit 2), Mean / Table 4 (untitled, change of Table 3 count versus Visit 2), Median / Table 4 (untitled, change of Table 3 count versus Visit 2), Min. / Table 7 (untitled, change of Table 6 count versus Visit 2), Max. / Table 7 (untitled, change of Table 6 count versus Visit 2), Mean / Table 7 (untitled, change of Table 6 count versus Visit 2), Median / Table 7 (untitled, change of Table 6 count versus Visit 2), Min.: N 16; for Table 5 (untitled, lesion count per subject): individual subjects
Experimental: Sixteen patients with moderate to severe facial acne vulgaris received a daily oral dose of 1 mg of rambazole for 12 weeks. […] The average lesion reduction was 79%. See Tables 3 through 7 for additional individual data. See FIGS. 5 and 6, respectively, for a comparison of the response to treatment of inflammatory lesions versus non-inflammatory lesions.

In the case of CCC(CC)C(c1ccc(Nc2nc3ccccc3s2)cc1)n1cncn1 (stereo not shown) [rambazole], the “inflammatory response induced by application of SLS (visual scoring of redness, chromametry, TEWL)” value [1] is reported as “inhibits the inflammatory response”, the serious adverse effects ([2]; 1 mg oral daily for 12 weeks) is reported as “No serious adverse effects were reported” and the “Table 3 (untitled, lesion count), Max.” value ([2]; Visit No. 2) is reported as 170. For the same compound, the “Table 3 (untitled, lesion count), Mean” value ([2]; Visit No. 2) was 56.2, the “Table 3 (untitled, lesion count), Median” value ([2]; Visit No. 2) was 48.0 and the “Table 3 (untitled, lesion count), Min.” value ([2]; Visit No. 2) was 15. For the same compound, the “Table 6 (untitled, summary of Table 5 lesion count), Max.” value ([2]; Visit No. 2) was 199, the “Table 6 (untitled, summary of Table 5 lesion count), Mean” value ([2]; Visit No. 2) was 81.3 and the “Table 6 (untitled, summary of Table 5 lesion count), Median” value ([2]; Visit No. 2) was 87.0. For the same compound, the “Table 6 (untitled, summary of Table 5 lesion count), Min.” value ([2]; Visit No. 2) was 22, the “Table 5 (untitled, lesion count per subject)” value ([2]; Visit No. 2) was 22 and 46 and 63 and 25 and 23 and 93 (2×) and 72 and 49 and 89 and 110 and 199 and 121 and 95 and 115 and 85 and the “Table 3 (untitled, lesion count), Max.” value ([2]; Visit No. 4) was 77. For the same compound, the “Table 3 (untitled, lesion count), Mean” value ([2]; Visit No. 4) was 34.4, the “Table 3 (untitled, lesion count), Median” value ([2]; Visit No. 4) was 34.5 and the “Table 3 (untitled, lesion count), Min.” value ([2]; Visit No. 4) was 3. For the same compound, the “Table 4 (untitled, change of Table 3 count versus Visit 2), Max.” value ([2]; Visit No. 4) was 15, the “Table 4 (untitled, change of Table 3 count versus Visit 2), Mean” value ([2]; Visit No. 4) was −21.8 and the “Table 4 (untitled, change of Table 3 count versus Visit 2), Median” value ([2]; Visit No. 4) was −10.0. For the same compound, the “Table 4 (untitled, change of Table 3 count versus Visit 2), Min.” value ([2]; Visit No. 4) was −159, the “Table 6 (untitled, summary of Table 5 lesion count), Max.” value ([2]; Visit No. 4) was 122 and the “Table 6 (untitled, summary of Table 5 lesion count), Mean” value ([2]; Visit No. 4) was 51.4. For the same compound, the “Table 6 (untitled, summary of Table 5 lesion count), Median” value ([2]; Visit No. 4) was 49.5, the “Table 6 (untitled, summary of Table 5 lesion count), Min.” value ([2]; Visit No. 4) was 3 and the “Table 7 (untitled, change of Table 6 count versus Visit 2), Max.” value ([2]; Visit No. 4) was 10. The “Table 7 (untitled, change of Table 6 count versus Visit 2), Mean” value ([2]; Visit No. 4) was −29.9, the “Table 7 (untitled, change of Table 6 count versus Visit 2), Median” value ([2]; Visit No. 4) was −17.5 and the “Table 7 (untitled, change of Table 6 count versus Visit 2), Min.” value ([2]; Visit No. 4) was −159. The “Table 5 (untitled, lesion count per subject)” value ([2]; Visit No. 4) was 11 and 3 and 12 and 30 and 21 and 71 and 58 and 59 and 80 and 45 and 89 and 40 and 48 and 82 and 122 and 51, the “Table 3 (untitled, lesion count), Max.” value ([2]; Visit No. 5) was 94 and the “Table 3 (untitled, lesion count), Mean” value ([2]; Visit No. 5) was 26.4. For the same compound, the “Table 3 (untitled, lesion count), Median” value ([2]; Visit No. 5) was 27.0, the “Table 3 (untitled, lesion count), Min.” value ([2]; Visit No. 5) was 1 and the “Table 4 (untitled, change of Table 3 count versus Visit 2), Max.” value ([2]; Visit No. 5) was 19. The “Table 4 (untitled, change of Table 3 count versus Visit 2), Mean” value ([2]; Visit No. 5) was −29.8, the “Table 4 (untitled, change of Table 3 count versus Visit 2), Median” value ([2]; Visit No. 5) was −22.0 and the “Table 4 (untitled, change of Table 3 count versus Visit 2), Min.” value ([2]; Visit No. 5) was −142. For the same compound, the “Table 6 (untitled, summary of Table 5 lesion count), Max.” value ([2]; Visit No. 5) was 146, the “Table 6 (untitled, summary of Table 5 lesion count), Mean” value ([2]; Visit No. 5) was 39.5 and the “Table 6 (untitled, summary of Table 5 lesion count), Median” value ([2]; Visit No. 5) was 40.5. For the same compound, the “Table 6 (untitled, summary of Table 5 lesion count), Min.” value ([2]; Visit No. 5) was 1, the “Table 7 (untitled, change of Table 6 count versus Visit 2), Max.” value ([2]; Visit No. 5) was 31 and the “Table 7 (untitled, change of Table 6 count versus Visit 2), Mean” value ([2]; Visit No. 5) was −41.8. The “Table 7 (untitled, change of Table 6 count versus Visit 2), Median” value ([2]; Visit No. 5) was −45.0, the “Table 7 (untitled, change of Table 6 count versus Visit 2), Min.” value ([2]; Visit No. 5) was −140 and the “Table 5 (untitled, lesion count per subject)” value ([2]; Visit No. 5) was 9 and 1 and 4 (2×) and 2 (2×) and 48 and 64 and 42 and 39 and 33 and 80 and 59 and 55 and 44 and 146. For the same compound, the “Table 3 (untitled, lesion count), Max.” value ([2]; Visit No. 6) was 37, the “Table 3 (untitled, lesion count), Mean” value ([2]; Visit No. 6) was 12.8 and the “Table 3 (untitled, lesion count), Median” value ([2]; Visit No. 6) was 13.5. The “Table 3 (untitled, lesion count), Min.” value ([2]; Visit No. 6) was 0, the “Table 4 (untitled, change of Table 3 count versus Visit 2), Max.” value ([2]; Visit No. 6) was −12 and the “Table 4 (untitled, change of Table 3 count versus Visit 2), Mean” value ([2]; Visit No. 6) was −43.4. For the same compound, the “Table 4 (untitled, change of Table 3 count versus Visit 2), Median” value ([2]; Visit No. 6) was −34.0.
